# Test results: patent US4209521A, “Anti-depressant indole derivatives” (John Wyeth & Brother Limited, priority 1977, dated 1980)
# “Also recorded” adds a separate entry of the source.
# How the values were obtained:
# [1] = system: neuronal uptake of noradrenaline into slices of cerebral cortex; experiment: Inhibition of noradrenaline uptake in brain slices; type: cell-based, rat; settings: for Potency Ratio (imipramine = 1.0) Noradrenaline: inhibition of noradrenaline uptake, rat cerebral cortex slices, relative to imipramine = 1.0; for Inhibition of noradrenaline uptake (in words): qualitative
# Description: Concentration-response curves are obtained both for the test compound and for the standard agent, imipramine. The potency of each test compound is expressed in proportion to that of imipramine. Thus, the potency ratio for the test compound= [formula]
# mice = experiment: Motor Activity (Exploratory behaviour in mice); type: in vivo, mouse; settings: i.p., qualitative
# Description: The test compounds were administered i.p. to mice (3 groups of 4 per dose) at time 0. Seventy minutes later the animals were transferred to square boxes placed beneath the detector heads of Aktograph activity monitors. The exploratory activity of the mice was counted over the following 20 minute period.
# [2] = system: post-synaptic 5HT receptor; experiment: 5HT Antagonism in Vitro (isolated rat ileum); type: cell-based
# [3] = system: uptake of 5-hydroxytryptamine in slices of cerebral cortex; experiment: Inhibition of 5-hydroxytryptamine uptake in brain slices; type: cell-based, rat; settings: for Potency Ratio (imipramine = 1.0) 5-Hydroxytryptamine: inhibition of 5-hydroxytryptamine uptake, rat cerebral cortex slices, relative to imipramine = 1.0; for Inhibition of 5-hydroxytryptamine uptake (in words): qualitative
# Description: The effects of test compounds on the neuronal uptake of noradrenaline into slices of cerebral cortex prepared from rat brain is determined according to the method described by Snyder, Green and Hendley, Kinetics of H^3 -norepihephrine accumulation into slices from different regions of the rat brain (J. Pharm. exp. Therap. 164: 90-102) (1968). The effects of test compounds on the uptake of 5-hydroxytryptamine is obtained in a similar manner except that H^3 5-hydroxytryptamine is used in place of H^3 noradrenaline. Concentration-response curves are obtained both for the test compound and for the standard agent, imipramine. The potency of each test compound is expressed in proportion to that of imipramine. Thus, the potency ratio for the test compound= [formula]
# hypertensive rats [4] = experiment: Anti-hypertensive activity in deoxycorticosterone acetate hypertensive rats; type: in vivo, rat; settings: for Reduction of blood pressure (in words): hypertensive rats, p.o., qualitative
# Description: Female rats are rendered hypertensive by unilateral nephrectomy and the s.c. implantation of a pellet containing 30 mg of deoxycorticosterone acetate. The drinking water is replaced by normale saline ad lib for the first four weeks following preparation. Blood pressure stabilise at a hypertensive level after 6 weeks. Systolic pressure is measured indirectly before dosing with a test compound using an E and M pneumatic pulse transducer and a Devices MX2 recorder. Groups of 4 rats are dosed orally with suspensions or solutions of the test compound in 0.5% hydroxypropyl-methyl-cellulose 0.9% saline vehicle. Blood pressures are recorded again at 2, 6 and 24 hours and the results, expressed as a percentage of the pre-dose values compared with those of a similar group of rats receiving vehicle alone.
# mice (CF-1) = experiment: CNS Activity (Effect on Behaviour of Mice); type: in vivo, mouse (CF-1)
# Description: The test compounds are administered orally to three mice (CF-1 14 to 24 grams) at each of the following doses: 400, 127, 40 and 12.7 mg/kg. The animals are watched for two hours during which time signs of general stimulation (i.e. increased spontaneous motor activity, hyperactivity on tactile stimulation, twitching), general depression (i.e. decreased spontaneous motor activity, decreased respiration) and autonomic activity (i.e. miosis, mydriasis, diarrhoea) are noted.
# hypertensive rats [5] = experiment: Another procedure for determining anti-hypertensive activity in hypertensive rats; type: in vivo, rat; settings: qualitative
# [6] = 50 mg/kg p.o., 2 hr after dosing
# [7] = 50 mg/kg p.o., 6 hr after dosing
# [8] = 50 mg/kg p.o., 24 hr after dosing
# [9] = 10 mg/kg p.o., 2 hr after dosing
# [10] = 10 mg/kg p.o., 6 hr after dosing
# [11] = 10 mg/kg p.o., 24 hr after dosing
# [12] = 25 mg/kg p.o., 2 hr after dosing
# [13] = 25 mg/kg p.o., 6 hr after dosing
# [14] = 25 mg/kg p.o., 24 hr after dosing
# [15] = mice, oral, watched for two hours
smiles,measurement,setting,value
"O=C(NC(=O)c1ccccc1)NC1CCN(Cc2c[nH]c3ccccc23)CC1 [Compound I, 1-[1-(indol-3-ylmethyl)piperid-4-yl]-3-benzoyl urea]",Potency Ratio (imipramine = 1.0) Noradrenaline,[1],0.06
same,Inhibition of noradrenaline uptake (in words),[1],weak inhibitors of noradrenaline uptake
same,Effect on exploratory behaviour (in words),mice,virtually without effect
same,5HT antagonism: effect on responses of isolated rat ileum to 5-hydroxytryptamine,"[2]; 10^-6 M, isolated rat ileum",the responses to the subsequent administration of 5HT were not affected
same,Direct effect on the isolated rat ileum preparation,"[2]; 10^-6 M, isolated rat ileum",caused the preparation to relax
same,Antagonism of the post-synaptic 5HT receptor in vitro (in words),"[2]; in vitro, summary statement",does not antagonise the post-synaptic 5HT receptor in vitro
same,Potency Ratio (imipramine = 1.0) 5-Hydroxytryptamine,[3],10.0
same,Inhibition of 5-hydroxytryptamine uptake (in words),[3],potent inhibitors of 5HT uptake
same,BP (systolic blood pressure),hypertensive rats [4]; [6],90 % control
same,HR (heart rate),hypertensive rats [4]; [6],101 % control
same,BP (systolic blood pressure),hypertensive rats [4]; [7],102 % control
same,HR (heart rate),hypertensive rats [4]; [7],98 % control
same,BP (systolic blood pressure),hypertensive rats [4]; [8],106 % control
same,HR (heart rate),hypertensive rats [4]; [8],84 % control
same,Reduction of blood pressure (in words),hypertensive rats [4],without significant activity; also recorded: does not induce marked CNS depression in animals or significantly reduce the blood pressure of hypertensive rats
same,CNS depression / signs of sedation (in words),"mice (CF-1); mouse, in vivo",does not induce marked CNS depression in animals
same,Lowest Dose to induce effect: Decreased activity,"mice (CF-1); mouse, in vivo, po, 120 min",400 mg/kg p.o.
same,Lowest Dose to induce effect: Slight weakness,"mice (CF-1); mouse, in vivo, po, 120 min",400 mg/kg p.o.
same,Anti-hypertensive activity (in words),hypertensive rats [5],moderate activity
"O=C(NC(=O)c1ccccc1)NC1CCN(CCc2c[nH]c3ccccc23)CC1 [Compound II, 1-benzoyl-3-[1-(2-[3-indolyl]ethyl)piperid-4-yl]urea]",Potency Ratio (imipramine = 1.0) Noradrenaline,[1],0.2
same,Inhibition of noradrenaline uptake (in words),[1],weak inhibitors of noradrenaline uptake
same,Effect on exploratory behaviour (in words),mice,marked reduction of exploratory behaviour
same,5HT antagonism: effect on responses of isolated rat ileum to 5-hydroxytryptamine,"[2]; 10^-6 M, isolated rat ileum",non-competitive blockade
same,Potency Ratio (imipramine = 1.0) 5-Hydroxytryptamine,[3],8.0
same,Inhibition of 5-hydroxytryptamine uptake (in words),[3],potent inhibitors of 5HT uptake
same,BP (systolic blood pressure),hypertensive rats [4]; [9],64 % control
same,HR (heart rate),hypertensive rats [4]; [9],109 % control
same,BP (systolic blood pressure),hypertensive rats [4]; [10],82 % control
same,HR (heart rate),hypertensive rats [4]; [10],96 % control
same,BP (systolic blood pressure),hypertensive rats [4]; [11],99 % control
same,HR (heart rate),hypertensive rats [4]; [11],97 % control
same,BP (systolic blood pressure),hypertensive rats [4]; [12],49 % control
same,HR (heart rate),hypertensive rats [4]; [12],119 % control
same,BP (systolic blood pressure),hypertensive rats [4]; [13],52 % control
same,HR (heart rate),hypertensive rats [4]; [13],104 % control
same,BP (systolic blood pressure),hypertensive rats [4]; [14],79 % control
same,HR (heart rate),hypertensive rats [4]; [14],97 % control
same,BP (systolic blood pressure),hypertensive rats [4]; [6],51 % control
same,HR (heart rate),hypertensive rats [4]; [6],105 % control
same,BP (systolic blood pressure),hypertensive rats [4]; [7],51 % control
same,HR (heart rate),hypertensive rats [4]; [7],90 % control
same,BP (systolic blood pressure),hypertensive rats [4]; [8],62 % control
same,HR (heart rate),hypertensive rats [4]; [8],96 % control
same,Reduction of blood pressure (in words),hypertensive rats [4],marked reduction of blood pressure
same,CNS depression / signs of sedation (in words),"mice (CF-1); animals (mice), qualitative",induced signs of sedation at doses considerably lower than those of compound I required to induce a similar effect
same,Lowest Dose to induce effect: Ataxia,mice (CF-1); [15],127 mg/kg p.o.
same,Lowest Dose to induce effect: Catalepsy,mice (CF-1); [15],400 mg/kg p.o.
same,Lowest Dose to induce effect: Decreased activity,mice (CF-1); [15],4.0 mg/kg p.o.
same,Lowest Dose to induce effect: Decreased respiration,mice (CF-1); [15],400 mg/kg p.o.
same,Lowest Dose to induce effect: Ptosis,mice (CF-1); [15],40 mg/kg p.o.
same,Anti-hypertensive activity (in words),hypertensive rats [5],marked activity
"COc1ccc2[nH]cc(CN3CCC(NC(=O)NC(=O)c4ccccc4)CC3)c2c1 [Example 2, 1-[1-(5-Methoxyindol-3-ylmethyl)piperid-4-yl]-3-benzoylurea]",Potency Ratio (imipramine = 1.0) Noradrenaline,[1],inactive
same,Potency Ratio (imipramine = 1.0) 5-Hydroxytryptamine,[3],3.2
"O=C(NC(=O)c1cccs1)NC1CCN(Cc2c[nH]c3ccccc23)CC1 [Example 3, 1-[1-(Indol-3-ylmethyl)piperid-4-yl]-3-(2-thenoyl)-urea]",Potency Ratio (imipramine = 1.0) Noradrenaline,[1],0.19
same,Potency Ratio (imipramine = 1.0) 5-Hydroxytryptamine,[3],7.8
"Cc1[nH]c2ccccc2c1CN1CCC(NC(=O)NC(=O)c2ccccc2)CC1 [Example 4, 1-Benzoyl-3-[1-([2-methylindol-3-yl]methyl)piperid-4-yl]urea]",Potency Ratio (imipramine = 1.0) Noradrenaline,[1],0.16
same,Potency Ratio (imipramine = 1.0) 5-Hydroxytryptamine,[3],0.8
"O=C(NC(=O)c1ccccc1)NC1CCN(Cc2c[nH]c3ccc(O)cc23)CC1 [Example 5, 1-Benzoyl-3-[1-([5-hydroxyindol-3-yl]methyl)piperid-4-yl]urea]",Potency Ratio (imipramine = 1.0) Noradrenaline,[1],0.2
same,Potency Ratio (imipramine = 1.0) 5-Hydroxytryptamine,[3],12.3
"COc1ccc(C(=O)NC(=O)NC2CCN(Cc3c[nH]c4ccccc34)CC2)cc1 [Example 6, 3-(4-methoxybenzoyl)-1-(1-[indol-3-ylmethyl]piperid-4-yl)urea]",Potency Ratio (imipramine = 1.0) Noradrenaline,[1],0.06
same,Potency Ratio (imipramine = 1.0) 5-Hydroxytryptamine,[3],5.0
"O=C(NC(=O)c1ccc(F)cc1)NC1CCN(Cc2c[nH]c3ccccc23)CC1 [Example 8, 1-(4-Fluorobenzoyl)-3-(1-[indol-3-ylmethyl]piperid-4-yl)urea]",Potency Ratio (imipramine = 1.0) Noradrenaline,[1],0.1
same,Potency Ratio (imipramine = 1.0) 5-Hydroxytryptamine,[3],1.04
"O=C(NC(=S)NC1CCN(Cc2c[nH]c3ccccc23)CC1)c1ccccc1 [Example 10, 1-[1-(Indol-3-ylmethyl)piperid-4-yl]-3-benzoylthiourea]",Potency Ratio (imipramine = 1.0) 5-Hydroxytryptamine,[3],6.5
"COc1cccc(C(=O)NC(=O)NC2CCN(Cc3c[nH]c4ccccc34)CC2)c1 [Example 11, 3-(3-Methoxybenzoyl)-1-(1-[indol-3-ylmethyl]piperid-4-yl)urea]",Potency Ratio (imipramine = 1.0) 5-Hydroxytryptamine,[3],2.7
